This is an account of results in patent US7772180B2, “Hepatitis C virus inhibitors” (Bristol-Myers Squibb Company, priority 2006, dated 2010).

The target of assay [1] is T1, HCV NS3/4A protease complex, BMS strain (UniProt P27958, species not given/STRAIN_BMS).
T1 construct: other: NS3/4A BMS strain; activity range class; numeric values, unit not given; said of H77 and J4L6S; fused on or other part: A three-lysine solubilising tail at the C-terminus of NS4A; A His tag is implied by the pET21b vector and Ni-NTA purification; Both are printed for the H77 and J4L6S constructs and apply to BMS by inference
Briefly: FRET peptide assay to monitor HCV NS3/4A proteolytic activity (BMS strain). In kind it is biochemical, Hepatitis C virus (genotype 1a). The conditions noted are these: read-out: HCV Protease (IC50), NS3/4A BMS strain. The source says:
HCV NS3 protease complexes, derived from the BMS strain, H77 strain or J4L6S strain, were generated, as described below. These purified recombinant proteins were generated for use in a homogeneous assay (see below) to provide an indication of how effective compounds of the present disclosure would be in inhibiting HCV NS3 proteolytic activity.
Serum from an HCV-infected patient was obtained from Dr. T. Wright, San Francisco Hospital. An engineered full-length cDNA (compliment deoxyribonucleic acid) template of the HCV genome (BMS strain) was constructed from DNA fragments obtained by reverse transcription-PCR (RT-PCR) of serum RNA (ribonucleic acid) and using primers selected on the basis of homology between other genotype 1a strains. From the determination of the entire genome sequence, a genotype 1a was assigned to the HCV isolate according to the classification of Simmonds et al. (See P Simmonds, K A Rose, S Graham, S W Chan, F McOmish, B C Dow, E A Follett, P L Yap and H Marsden, J. Clin. Microbiol., 31(6), 1493-1503 (1993)). […] The infectious clones, H77 (1a genotype) and J4L6S (1b genotype) were obtained from R. Purcell (NIH) and the sequences are published in Genbank (AAB67036, see Yanagi, M., Purcell, R. H., Emerson, S. U. and Bukh, J. Proc. Natl. Acad. Sci. U.S.A. 94(16), 8738-8743 (1997); AF054247, see Yanagi, M., St Claire, M., Shapiro, M., Emerson, S. U., Purcell, R. H. and Bukh, J. Virology 244 (1), 161-172. (1998)).
NS3/4A protease complex-containing fractions were pooled and loaded on a desalting column Superdex-S200 pre-equilibrated with buffer D (25 mM HEPES, pH 7.5, 20% glycerol, 300 mM NaCl, 0.2% Triton X-100, 10 mM βME). Sample was loaded at a flow rate of 1 mL/min. NS3/4A protease complex-containing fractions were pooled and concentrated to approximately 0.5 mg/ml. The purity of the NS3/4A protease complexes, derived from the BMS, H77 and J4L6S strains, were judged to be greater than 90% by SDS-PAGE and mass spectrometry analyses. The enzyme was stored at −80° C., thawed on ice and diluted prior to use in assay buffer.
The purpose of this in vitro assay was to measure the inhibition of HCV NS3 protease complexes, derived from the BMS strain, H77 strain or J4L6S strain, as described above, by compounds of the present disclosure. This assay provides an indication of how effective compounds of the present disclosure would be in inhibiting HCV NS3 proteolytic activity.
In order to monitor HCV NS3/4A protease activity, an NS3/4A peptide substrate was used. The substrate was RET S1 (Resonance Energy Transfer Depsipeptide Substrate; AnaSpec, Inc. cat #22991) (FRET peptide), described by Taliani et al. in Anal. Biochem. 240(2):60-67 (1996). The sequence of this peptide is loosely based on the NS4A/NS4B natural cleavage site for the HCV NS3 protease except there is an ester linkage rather than an amide bond at the cleavage site. The peptide also contains a fluorescence donor, EDANS, near one end of the peptide and an acceptor, DABCYL, near the other end. The fluorescence of the peptide is quenched by […] resonance energy transfer (RET) between the donor and the acceptor, but as the NS3 protease cleaves the peptide the products are released from RET quenching and the fluorescence of the donor becomes apparent.
The peptide substrate was incubated with one of the three recombinant NS3/4A protease complexes, in the absence or presence of a compound of the present disclosure. The inhibitory effects of a compound were determined by monitoring the formation of fluorescent reaction product in real time using a Cytofluor Series 4000.
Assay buffer: 50 mM HEPES, pH 7.5; 0.15 M NaCl; 0.1% Triton; 15% Glycerol; 10 mM βME. Substrate: 2 μM final concentration (from a 2 mM stock solution in DMSO stored at −20° C.). HCV NS3/4A protease type 1a (1b), 2-3 nM final concentration (from a 5 μM stock solution in 25 mM HEPES, pH 7.5, 20% glycerol, 300 mM NaCl, 0.2% Triton-X100, 10 mM βME). […]

For assay [2], the system named is HCV replicon (strain 1b) in HUH-7 cells. Briefly: HCV replicon FRET assay. It counts as cell-based, Hepatitis C virus. The following applies: Hepatitis C virus, Huh-7, read-out: HCV Pro Replicon (EC50), HCV replicon cell assay. From the text: An HCV replicon whole cell system was established as described by Lohmann V, Korner F, Koch J, Herian U, Theilmann L, Bartenschlager R., Science 285(5424): 110-3 (1999). This system enabled us to evaluate the effects of our HCV Protease compounds on HCV RNA replication. Briefly, using the HCV strain 1b sequence described in the Lohmann paper (Assession number: AJ238799), an HCV cDNA was synthesized by Operon Technologies, Inc. (Alameda, Calif.), and the full-length replicon was then assembled in plasmid pGem9zf(+) (Promega, Madison, Wis.) using standard molecular biology techniques. The replicon consists of (i) the HCV 5′ UTR fused to the first 12 amino acids of the capsid protein, (ii) the neomycin phosphotransferase gene (neo), (iii) the IRES from encephalomyocarditis virus (EMCV), and (iv) HCV NS3 to NS5B genes and the HCV 3′ UTR. Plasmid DNAs were linearized with ScaI and RNA transcripts were synthesized in vitro using the T7 MegaScript transcription kit (Ambion, Austin, Tex.) according to manufacturer's directions. In vitro transcripts of the cDNA were transfected into the human hepatoma cell line, HUH-7. […] Resulting cell lines were characterized for positive and negative strand RNA production and protein production over time.
The HCV replicon FRET assay was developed to monitor the inhibitory effects of compounds described in the disclosure on HCV viral replication. HUH-7 cells, constitutively expressing the HCV replicon, were grown in Dulbecco's Modified Eagle Media (DMEM) (Gibco-BRL) containing 10% Fetal calf serum (FCS) (Sigma) and 1 mg/ml G418 (Gibco-BRL). Cells were seeded the night before (1.5×10^4 cells/well) in 96-well tissue-culture sterile plates. Compound and no compound controls were prepared in DMEM containing 4% FCS, 1:100 Penicillin/Streptomysin (Gibco-BRL), 1:100 L-glutamine and 5% DMSO in the dilution plate (0.5% DMSO final concentration in the assay). Compound/DMSO mixes were added to the cells and incubated for 4 days at 37° C. After 4 days, cells were first assessed for cytotoxicity using alamar Blue (Trek Diagnotstic Systems) for a CC50 reading. The toxicity of compound (CC50) was determined by adding 1/10th volume of alamarBlue to the media incubating the cells. After 4 hours, the fluorescence signal from each well was read, with an excitation wavelength at 530 nm and an emission wavelength of 580 nm, using the Cytofluor Series 4000 (Perspective Biosystems). Plates were then rinsed thoroughly with Phosphate-Buffered Saline (PBS) (3 times 150 μl).
A general note: A replicon is a self-replicating genome or part of one, used to study replication in cells.

Where two headings read alike, the source gives them in different places.

T1 sequence (P27958 1027-1657, change not shown, one chain of several): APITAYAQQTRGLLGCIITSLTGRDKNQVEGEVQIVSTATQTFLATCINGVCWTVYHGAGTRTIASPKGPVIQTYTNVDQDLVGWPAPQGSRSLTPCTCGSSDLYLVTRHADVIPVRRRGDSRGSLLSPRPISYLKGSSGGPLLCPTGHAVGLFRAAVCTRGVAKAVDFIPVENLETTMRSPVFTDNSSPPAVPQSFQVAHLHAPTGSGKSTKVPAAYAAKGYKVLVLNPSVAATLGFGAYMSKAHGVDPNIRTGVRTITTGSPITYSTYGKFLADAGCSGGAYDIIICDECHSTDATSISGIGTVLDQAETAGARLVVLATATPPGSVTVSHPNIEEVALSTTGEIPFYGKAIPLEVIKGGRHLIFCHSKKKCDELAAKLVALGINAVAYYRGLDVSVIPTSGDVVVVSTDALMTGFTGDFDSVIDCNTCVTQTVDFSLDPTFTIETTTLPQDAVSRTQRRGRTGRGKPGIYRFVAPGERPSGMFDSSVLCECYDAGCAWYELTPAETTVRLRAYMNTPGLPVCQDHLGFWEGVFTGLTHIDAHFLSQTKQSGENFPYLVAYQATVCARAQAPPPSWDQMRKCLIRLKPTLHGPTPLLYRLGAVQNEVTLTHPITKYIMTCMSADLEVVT

Turning to `C=C[C@@H]1C[C@]1(NC(=O)[C@@H]1C[C@@H](Oc2nccc3cc(OC)ccc23)CN1C(=O)C(Nc1ccc(C(F)(F)F)cn1)C(C)C)C(=O)NS(=O)(=O)C1CC1` (single isomer, unassigned) [Compound 2], the IC50 (in general, the concentration needed to halve the response being measured) in assay [1] (activity range class) lay in the range of 20 to 200 nM. Also, in assay [2] (activity range class), the EC50 (in general, the concentration that produces a half-maximal response) was 100 to 1000 nM.

`C=C[C@@H]1C[C@]1(NC(=O)[C@@H]1C[C@@H](Oc2nccc3cc(OC)ccc23)CN1C(=O)C(Nc1ccccn1)C(C)C)C(=O)NS(=O)(=O)C1CC1` (single isomer, unassigned) [Compound 7]: in assay [1] (activity range class), the concentration for half-maximal inhibition (IC50) is 20 to 200 nM. Also, the concentration for a half-maximal effect (EC50) in assay [2] (activity range class) lay in the range of 3 to 100 nM.

For `C=C[C@@H]1C[C@]1(NC(=O)[C@@H]1C[C@@H](Oc2nccc3cc(OC)ccc23)CN1C(=O)C(Nc1cc(OC)ccn1)C(C)C)C(=O)NS(=O)(=O)C1CC1` (single isomer, unassigned) [Compound 8], the half-inhibitory concentration (IC50) in assay [1] (activity range class) fell in the range of 20 to 200 nM. The EC50 in assay [2] (activity range class) fell in the range of 3 to 100 nM.

For `C=C[C@@H]1C[C@]1(NC(=O)[C@@H]1C[C@@H](Oc2nccc3cc(OC)ccc23)CN1C(=O)C(Nc1cc(C(F)(F)F)ccn1)C(C)C)C(=O)NS(=O)(=O)C1CC1` (single isomer, unassigned) [Compound 9], the IC50 in assay [1] (activity range class) was in the range of 0.6 to 20 nM. Moreover, in assay [2] (activity range class), the 50% effective concentration (EC50) fell in the range of 3 to 100 nM.

With `C=C[C@@H]1C[C@]1(NC(=O)[C@@H]1C[C@@H](Oc2nccc3cc(OC)ccc23)CN1C(=O)C(Nc1cc(C)ccn1)C(C)C)C(=O)NS(=O)(=O)C1CC1` (single isomer, unassigned) [Compound 10], the half-inhibitory concentration (IC50) in assay [1] (activity range class) is 0.6 to 20 nM. Moreover, the concentration for a half-maximal effect (EC50) in assay [2] (activity range class) was in the range of 3 to 100 nM.

Consider `C=C[C@@H]1C[C@]1(NC(=O)[C@@H]1C[C@@H](Oc2nccc3cc(OC)ccc23)CN1C(=O)C(Nc1cc(C)cc(C)n1)C(C)C)C(=O)NS(=O)(=O)N(C)C` (single isomer, unassigned) [Compound 16], for which, in assay [1] (activity range class), the IC50 lay within 0.6 to 20 nM. In addition, in assay [2] (activity range class), the 50% effective concentration (EC50) fell in the range of 3 to 100 nM.

On to `C=C[C@@H]1C[C@]1(NC(=O)[C@@H]1C[C@@H](Oc2nc(N(C)C)cc3cc(OC)ccc23)CN1C(=O)C(Nc1ccccc1)C(C)(C)C)C(=O)NS(=O)(=O)C1CC1` (single isomer, unassigned) [Compound 19B], for which the IC50 in assay [1] (numeric values, unit inferred) came out at 1000 nM. Moreover, the EC50 in assay [2] (numeric values, unit inferred) was determined as 1850 nM.

As to `C=C[C@@H]1C[C@]1(NC(=O)[C@@H]1C[C@@H](Oc2ncc(OC)c3ccc(Cl)cc23)CN1C(=O)C(Nc1cncnc1)C(C)C)C(=O)NS(=O)(=O)C1CC1` (single isomer, unassigned) [Compound 24A], the concentration for half-maximal inhibition (IC50) in assay [1] (numeric values, unit inferred) was found to be 26 nM. In addition, the half-maximal effective concentration (EC50) in assay [2] (numeric values, unit inferred) was 593 nM.

For the molecule `C=C[C@@H]1C[C@]1(NC(=O)[C@@H]1C[C@@H](Oc2ncc(OC)c3ccc(Cl)cc23)CN1C(=O)C(Nc1ccc(C)nc1)C(C)(C)C)C(=O)NS(=O)(=O)C1CC1` (single isomer, unassigned) [Compound 26B], in assay [1] (numeric values, unit inferred), the IC50 was 1300 nM. Also, the EC50 in assay [2] (numeric values, unit inferred) was found to be 3190 nM.

With `C=C[C@@H]1C[C@]1(NC(=O)[C@@H]1C[C@@H](Oc2ncc(OC)c3ccc(Cl)cc23)CN1C(=O)C(Nc1cncc(C(F)(F)F)c1)C(C)(C)C)C(=O)NS(=O)(=O)C1CC1` (single isomer, unassigned) [Compound 27A], in assay [1] (numeric values, unit inferred), the IC50 turned out to be 3 nM. Moreover, in assay [2] (numeric values, unit inferred), the EC50 was 4.09 nM.

Turning to `C=C[C@@H]1C[C@]1(NC(=O)[C@@H]1C[C@@H](Oc2ncc(OC)c3ccc(Cl)cc23)CN1C(=O)C(Nc1cc(C)nc(C)c1)C(C)(C)C)C(=O)NS(=O)(=O)C1CC1` (single isomer, unassigned) [Compound 29A], the half-maximal inhibitory concentration (IC50) in assay [1] (activity range class) fell in the range of 0.6 to 20 nM. In addition, the EC50 in assay [2] (activity range class) was in the range of 100 to 1000 nM.

Take `C=C[C@@H]1C[C@]1(NC(=O)[C@@H]1C[C@@H](Oc2ncc(OC)c3ccc(Cl)cc23)CN1C(=O)C(Nc1cc(C)nc(C)c1)C(C)(C)C)C(=O)NS(=O)(=O)C1CC1` (single isomer, unassigned) [Compound 29B]: in assay [1] (numeric values, unit inferred), the half-maximal inhibitory concentration (IC50) came to 249 nM. Besides, in assay [2] (numeric values, unit inferred), the concentration for a half-maximal effect (EC50) amounted to 14900 nM.

`C=C[C@@H]1C[C@]1(NC(=O)[C@@H]1C[C@@H](Oc2ncc(OC)c3ccc(Cl)cc23)CN1C(=O)C(Nc1cc(Cl)cc(Cl)n1)C(C)(C)C)C(=O)NS(=O)(=O)C1CC1` (single isomer, unassigned) [Compound 32A]: the IC50 in assay [1] (numeric values, unit inferred) is 1 nM. The EC50 in assay [2] (numeric values, unit inferred) was found to be 3.59 nM.

Take `C=C[C@@H]1C[C@]1(NC(=O)[C@@H]1C[C@@H](Oc2ncc(OC)c3ccc(Cl)cc23)CN1C(=O)C(Nc1cc(Cl)cc(Cl)n1)C(C)(C)C)C(=O)NS(=O)(=O)C1CC1` (single isomer, unassigned) [Compound 32B]: the IC50 in assay [1] (activity range class) was > 200 nM. Besides, the half-maximal effective concentration (EC50) in assay [2] (activity range class) was > 1000 nM.

For the molecule `C=C[C@@H]1C[C@]1(NC(=O)[C@@H]1C[C@@H](Oc2nc(N(C)C)cc3c(OC)cccc23)CN1C(=O)C(Nc1cccc(C)n1)C(C)(C)C)C(=O)NS(=O)(=O)C1CC1` (single isomer, unassigned) [Compound 38A], in assay [1] (activity range class), the half-inhibitory concentration (IC50) was 0.6 to 20 nM. The EC50 in assay [2] (activity range class) lay within 3 to 100 nM.

With `C=C[C@@H]1C[C@]1(NC(=O)[C@@H]1C[C@@H](Oc2nc(N(C)C)cc3c(OC)cccc23)CN1C(=O)C(Nc1cccc(C)n1)C(C)(C)C)C(=O)NS(=O)(=O)C1CC1` (single isomer, unassigned) [Compound 38B], the half-maximal inhibitory concentration (IC50) in assay [1] (numeric values, unit inferred) is 5000 nM. For the same molecule, the half-maximal effective concentration (EC50) in assay [2] (numeric values, unit inferred) amounted to 7710 nM.
